By melting point is commonly meant the temperature of the solid-liquid transition.

Consider 64 compounds from a melting point compilation (Tetko et al.; mined from patent text by program, amines drawn as free bases though some values may be those of a salt).

Some results are limits rather than exact numbers.

For `FC(F)(F)Oc1ccc(-c2ncc(Br)cn2)cc1`, the melting point fell in the range of 107 to 108 °C. With `C=CCc1c[nH]c2c([N+](=O)[O-])cccc2c1=O`, the melting point was 242 °C. Then `Fc1ccc(-c2ncn(C3CCNCC3)c2-c2cccnc2Oc2ccc(OCc3ccccc3)cc2)cc1`, with 178 to 179 °C; and `O=C(O)c1ccc(OCCCCCCc2cccc(O)c2O)c(Cl)c1`, with 157 to 160 °C; and `COc1ccccc1N1CCN(CCCNC(=O)c2cccc3c(=O)c(C)c(C4CC4)oc23)CC1`, with 139 to 141 °C. As for `CN(C)Cc1ccc(CSCCNc2[nH]ccc2[N+](=O)[O-])o1`, the melting point is 67 °C. `COc1ccc(CCC(=O)c2cccnc2Oc2ccc(F)cc2)cc1`: the melting point fell in the range of 73 to 74 °C. Regarding `COc1cccc(CNC(=O)c2nc3scc(NC(=O)Cc4ccc(C(=O)O)cc4)c3c(=O)[nH]2)c1`, the melting point was in the range of 218 to 219 °C. Regarding `CCCc1ccc(OCCC(C)C)c2c(=O)cc(C(=O)O)oc12`, the melting point is 64.5 to 65 °C. Compound `C#CCN1C(=O)CCc2cc(F)c(-n3nc4ccc(Cl)cn4c3=O)cc21` gave a melting point of 200 to 202 °C. Compound `CC(=O)NC[C@H]1CN(c2ccc(C(=O)c3cnc4ncccn34)cc2)C(=O)O1` showed a melting point of 257 to 260 °C. For the compound `CC(=Cc1cc(Br)ccc1O)[N+](=O)[O-]`, the melting point is 95 to 97 °C. As to `Nn1c(C(F)(F)F)ccc(-c2ccc(Cl)cc2Cl)c1=O`, the melting point lay in the range of 98 to 100 °C. The compound `Cc1ccc2cccc(N3CCNCC3)c2n1` returned a melting point of 163 to 164 °C.

`CCC(=O)C(CCCOc1ccc(OCCCC(C(=O)CC)C(=O)CC)cc1)C(=O)CC` came in with a melting point of 57 to 58 °C. Then `CCOC(=O)CCc1ccc(OCCN2CCCC2=O)cc1O`, with 112 to 115 °C. `Cc1ccccc1C=C(C(=O)O)C(=O)O` registered a melting point of 197 to 200 °C. Turning to `CCCCCCCCCCCCS(=O)(=O)c1ccccc1[N+](=O)[O-]`, the melting point was in the range of 47 to 48 °C. For `COc1ccc(-c2cc(C(=O)O)cc3ccc4c(c23)OCO4)cc1`, the melting point is 264 to 266 °C.

Compound `N#Cc1ccc(-c2cn(-c3ccc(I)cc3)c(SCc3ccccn3)n2)cc1` displayed a melting point of 180 to 184 °C. To `Cn1c(CN2CCOCC2)nc([N+](=O)[O-])c1C#N` belongs 112 to 115 °C. For the compound `CSc1nn2c(O)cc(C)nc2c1S(=O)(=O)c1ccccc1`, the melting point is greater than 220 °C. `CCOC(=O)C=CN1C(C)(C)CC(N(C=O)CCCCCCN(C=O)C2CC(C)(C)N(C=CC(=O)OCC)C(C)(C)C2)CC1(C)C` showed a melting point of 172 °C.

`COC(=O)C1=C(C)Nc2nccn2C1c1cccc(N)c1` (centres undefined) registered a melting point of 224 to 225 °C.

In the case of `O=[N+]([O-])c1ccc(C(O)c2ccccn2)c(OCC(F)(F)F)c1` (centres undefined), the melting point is 119 to 123 °C. Take `CCc1nn(CCOC(N)=O)c(CC)c1Cc1cc(Cl)cc(Cl)c1`: the melting point was in the range of 145 to 147 °C. As to `CC(C)Nc1cccnc1N1CCN(C(=O)c2ccc(C(=O)O)cn2)CC1`, the melting point fell in the range of 211 to 214 °C. `O=C(Cn1c(=O)[nH]c2ccccc21)c1c(-c2ccccc2)nc2ccccn12` gave a melting point of 233 to 235 °C. `Nc1nc2c(s1)CCCc1ccc(F)cc1-2` gave a melting point of 270 °C. To `Nc1cccc(-c2n[nH]c3ncnc(Nc4cccc(Cl)c4)c23)c1` belongs 264 to 266 °C. Regarding `COc1ccc(-c2c(-c3ccccc3)nc3n2Cc2ccccc2C3)cc1`, the melting point fell in the range of 183 to 185 °C. Regarding `C#CCOc1nsc(-c2ccccc2)n1`, the melting point is 66.9 °C. Turning to `CC1(C)C(=O)NC(=O)c2c1ccc(NC(=O)c1ccccc1)c2[N+](=O)[O-]`, the melting point was greater than 270 °C. Regarding `CCc1c(C(=O)NCCCCCCC(=NOCCN)c2ccc(C(F)(F)F)cc2)nc(-c2ccccc2Cl)n1-c1ccc(Cl)cc1`, the melting point was 90 to 95 °C.

`COc1ccc(C(=O)COc2ccccc2Br)cc1` registered a melting point of 104 °C. With `C[Si](C)(C)c1cc(C(F)=C(F)C(F)(F)F)c(S(N)(=O)=O)s1`, the melting point is 129 to 140 °C.

`CC(=O)N(C)c1ccc(OCc2nc3ccccc3s2)cc1`: the melting point fell in the range of 119 to 120 °C. Take `CC1CC(=O)NN=C1c1ccc(N2CCC(C(=O)O)CC2)c([N+](=O)[O-])c1` (centres undefined): the melting point came to 214 °C. In turn, `CCn1nc(-c2c(-c3ccc(F)cc3)nn3ccc(OC)cc23)ccc1=O` came in with a melting point of 179 to 180 °C. To `O=C(C1CCCCC1)N1CCN2C(=O)c3ccccc3C2C1=O` (centres undefined) belongs 167 to 172 °C. `O=C(c1c(F)cccc1F)N1COCN(c2ccc(SC(F)(C(F)(F)F)C(F)(F)F)cc2F)C1=O` gave a melting point of 85 to 86 °C. In turn, `CSC[C@H]1C[C@H](C(=O)O)CS1` (relative stereo) registered a melting point of 74.8 to 76 °C. Consider `CC(C)(C)OC(=O)CN(Cc1ccccc1)S(=O)(=O)c1ccc2c(Cl)cnc(Cl)c2c1`, for which the melting point fell in the range of 134 to 136 °C.

`NC(=S)CCCc1ccc(Br)cc1`: the melting point is 104 to 105 °C.

With `CCc1nc(C)c2nnc3ccc(F)cc3n12`, the melting point was in the range of 187 to 190 °C.

`OCCOCC(O)c1cccc2ccccc12` (centres undefined): the melting point was in the range of 91 to 92 °C. In the case of `O=c1[nH]c2sc3c(Cl)cccc3c2[nH]c1=O`, the melting point was greater than 300 °C. For the compound `COC(=O)/C=C/n1cnc2c(C)cc(C)cc2c1=O`, the melting point fell in the range of 139 to 141 °C. The compound `[N-]=[N+]=C(C(=O)CCc1ccccc1)C(=O)CCc1ccccc1` came in with a melting point of 62.6 to 64 °C.

Regarding `Cn1ccc2cc(NC(=O)Nc3cncnc3)ccc21`, the melting point lay in the range of 210 to 213 °C. To `COC(=O)C1CC(=O)NC(Cc2ccccc2)C1=O` (centres undefined) belongs 146 to 148 °C. The compound `Cc1cc(-c2cc(C(F)(F)F)n3ncc(C(=O)Nc4cccc(S(=O)(=O)N5CCCC5)c4)c3n2)ccc1Cl` gave a melting point of 230 °C.

Take `CNC(=C[N+](=O)[O-])NCCSCc1nccc(NC(N)=NCC(F)(F)F)n1`: the melting point lay in the range of 154 to 157 °C.

On to `Nc1ccccc1Oc1cccc2c1NC(=O)C2`, for which the melting point lay in the range of 210 to 212 °C. Turning to `COc1cc(Nc2c(C#N)cnc3cc(-c4csc(CN5CCN(C)CC5)c4)ccc23)c(Cl)cc1Cl`, the melting point was in the range of 206 to 209 °C.

Compound `CN1C(=O)c2c(Cl)cc(Cl)c(Cl)c2C1=O` came in with a melting point of 166 to 168 °C. Take `CCCc1nc(NC)sc1-c1ccncc1`: the melting point fell in the range of 150 to 151 °C. In the case of `CC(C)(C)C(=O)OCc1nc(-c2ccc3c(c2)Nc2ccccc2S3)cs1`, the melting point was 120 to 122 °C. As for `CN(c1cccc2cc(-c3ncc(CN4CCOCC4)s3)[nH]c12)S(=O)(=O)c1cccs1`, the melting point is 181 to 182 °C. `O=[N+]([O-])c1cc(CSC2OC(CO)C(OC3OC4COC(c5ccccc5)OC4C(O)C3O)C(O)C2O)ccc1Cl` (centres undefined): the melting point lay within 120 to 122 °C.

Compound `Cc1ccc(-c2ccc3ccccc3c2C(=O)N(C)C)cc1` had a melting point of 145 to 146 °C. In turn, `C=CCc1cc(CC(=O)OC)ccc1OCc1ccc2ccccc2n1` had a melting point of 71 °C. The compound `CCNC(=O)c1sc(-n2ccc(O)cc2=O)cc1C` yielded a melting point of 183 to 184 °C. `CCCCCCC(CCC)OC1(C(C)=O)C=CC=CC1` (centres undefined) displayed a melting point of 38 to 39 °C.
